From the NIST ThermoML archive (doi:10.1021/je0601356)
“And” between values parts separate entries of the source, which are not always exact repeats. Identical values can stand only once.

Conditions: Liquid, Vibrating wire viscometry

FC(F)C(F)(F)F [pentafluoroethane]
Conditions	viscosity
253.99 K, 1440 kPa	0.2707 mPa·s
253.99 K, 1450 kPa	0.271 mPa·s
253.99 K, 1460 kPa	0.271 mPa·s
253.99 K, 1470 kPa	0.2711 mPa·s
253.99 K, 1480 kPa	0.2707 mPa·s
253.99 K, 3250 kPa	0.2794 mPa·s
253.99 K, 3280 kPa	0.2794 mPa·s and 0.279 mPa·s and 0.2789 mPa·s
253.99 K, 5050 kPa	0.2876 mPa·s
253.99 K, 5060 kPa	0.2874 mPa·s
253.99 K, 5100 kPa	0.2875 mPa·s
253.99 K, 5140 kPa	0.2875 mPa·s
253.99 K, 7350 kPa	0.2984 mPa·s
253.99 K, 7360 kPa	0.2984 mPa·s
253.99 K, 7380 kPa	0.2982 mPa·s
263.23 K, 1430 kPa	0.2381 mPa·s
263.23 K, 1440 kPa	0.2373 mPa·s and 0.2375 mPa·s
263.23 K, 1460 kPa	0.2382 mPa·s
263.23 K, 1480 kPa	0.2377 mPa·s
263.23 K, 3050 kPa	0.2452 mPa·s
263.23 K, 3060 kPa	0.2453 mPa·s
263.23 K, 3070 kPa	0.2456 mPa·s
263.23 K, 5030 kPa	0.2531 mPa·s
263.23 K, 5050 kPa	0.2529 mPa·s
263.23 K, 5060 kPa	0.2535 mPa·s
263.23 K, 5070 kPa	0.2538 mPa·s
263.23 K, 5080 kPa	0.2538 mPa·s
263.23 K, 5110 kPa	0.2534 mPa·s
263.23 K, 7530 kPa	0.2643 mPa·s
263.23 K, 7560 kPa	0.2645 mPa·s
263.23 K, 7610 kPa	0.2645 mPa·s
263.23 K, 7640 kPa	0.2646 mPa·s
263.23 K, 9770 kPa	0.2743 mPa·s
263.23 K, 9800 kPa	0.274 mPa·s
263.23 K, 9820 kPa	0.2745 mPa·s
273.08 K, 1460 kPa	0.2076 mPa·s
273.08 K, 1480 kPa	0.2075 mPa·s
273.08 K, 1490 kPa	0.2074 mPa·s
273.08 K, 1500 kPa	0.2074 mPa·s and 0.2073 mPa·s
273.08 K, 2940 kPa	0.2147 mPa·s
273.08 K, 2950 kPa	0.2145 mPa·s
273.08 K, 2990 kPa	0.2145 mPa·s
273.08 K, 5020 kPa	0.2234 mPa·s
273.08 K, 5030 kPa	0.2229 mPa·s and 0.2233 mPa·s
273.08 K, 5040 kPa	0.2224 mPa·s and 0.2226 mPa·s
273.08 K, 7480 kPa	0.2324 mPa·s
273.08 K, 7490 kPa	0.2327 mPa·s and 0.2324 mPa·s
273.08 K, 7510 kPa	0.2324 mPa·s
273.08 K, 7520 kPa	0.2326 mPa·s
273.08 K, 7530 kPa	0.2324 mPa·s
273.08 K, 9680 kPa	0.2416 mPa·s
273.08 K, 9690 kPa	0.2419 mPa·s and 0.2421 mPa·s
273.08 K, 9710 kPa	0.2416 mPa·s
283.29 K, 1550 kPa	0.1781 mPa·s
283.29 K, 1580 kPa	0.1789 mPa·s
283.29 K, 1590 kPa	0.1788 mPa·s
283.29 K, 1600 kPa	0.1785 mPa·s
283.29 K, 1620 kPa	0.1783 mPa·s
283.29 K, 3000 kPa	0.1852 mPa·s
283.29 K, 3010 kPa	0.185 mPa·s
283.29 K, 3030 kPa	0.1852 mPa·s
283.29 K, 3060 kPa	0.185 mPa·s
283.29 K, 5190 kPa	0.1957 mPa·s
283.29 K, 5220 kPa	0.1955 mPa·s [middle of 4 runs]
283.29 K, 5230 kPa	0.1953 mPa·s
283.29 K, 5270 kPa	0.1956 mPa·s
283.29 K, 7590 kPa	0.2059 mPa·s
283.29 K, 7600 kPa	0.2057 mPa·s [middle of 5 runs]
283.29 K, 10040 kPa	0.2155 mPa·s and 0.2159 mPa·s
283.29 K, 10050 kPa	0.2155 mPa·s
283.29 K, 10070 kPa	0.2155 mPa·s
283.29 K, 10080 kPa	0.2157 mPa·s
293.13 K, 2020 kPa	0.1577 mPa·s
293.13 K, 2030 kPa	0.1581 mPa·s
293.13 K, 2070 kPa	0.1583 mPa·s
293.13 K, 2100 kPa	0.1584 mPa·s
293.13 K, 2110 kPa	0.1583 mPa·s
293.13 K, 2140 kPa	0.1583 mPa·s
293.13 K, 5080 kPa	0.172 mPa·s
293.13 K, 5100 kPa	0.1716 mPa·s
293.13 K, 5130 kPa	0.1719 mPa·s and 0.1715 mPa·s
293.13 K, 7530 kPa	0.1818 mPa·s and 0.1813 mPa·s and 0.1811 mPa·s
293.13 K, 9990 kPa	0.1918 mPa·s
293.13 K, 10030 kPa	0.1915 mPa·s
293.13 K, 10040 kPa	0.1917 mPa·s [middle of 4 runs]
293.13 K, 10050 kPa	0.1914 mPa·s
